Where two headings read alike, the source gives them in different places. Marks after values point to notes of the source that are not given here.
What was measured:
[1] = system: adoptive transfer mouse model; assay: (D) Adoptive transfer in mice; format: in vivo, female SCID mice
Procedure: On Study day 0, female Balb/C mice are terminated and spleens obtained for CD45RB^high cell isolation (Using SCID IBD cell Separation protocol). Approximately 4×10^5 cells/mL CD45RB^high cells are then injected IP (100 μL/mouse) into female SCID animals. On study day 14, mice are weighed and randomized into treatment groups based on body weight. On Day 14 compounds are administered BID, via oral gavage, in a peanut oil vehicle at the dose levels outlined below and a dose volume of 5 mL/kg. Treatment continues until study day 42, at which point the animals are necropsied 4 hours after am administration. The colon length and weight is recorded and used as a secondary endpoint in the study as a measurement of colon oedema. The colon is then divided into six cross-sections, four of which are used for histopathology scoring (primary endpoint) and two are homogenised for cytokine analysis. Data shown is the % inhibition of the induction window between naïve animals and vehicle animals, where higher inhibition implies closer to the non-diseased, naïve, phenotype.

[2] = Pharmacokinetics and colon distribution in mice; format: in vivo, male C57BL/6 mice; details: male, 5 mg/kg p.o.; for concentration at 1 h / concentration at 2 h / concentration at 4 h / concentration at 6 h / concentration at 8 h / concentration at 12 h / concentration at 24 h: po, mouse
Procedure: Blood samples (approximately 60 μL) were collected from retro orbital plexus such that the samples were obtained at 1, 2, 4, 6, 8, 12 and 24 hr. The blood samples were collected from a set of three mice at each time point in labelled micro centrifuge tube containing K2EDTA as anticoagulant. Plasma samples were separated by centrifugation at 4000 rpm for 10 min of whole blood and stored below −70° C. until bioanalysis. After collection of blood sample, animals were humanely euthanized by carbon dioxide asphyxiation to collect total colon tissues. The colons were flushed with cold phosphate buffer saline (pH 7.4) to remove contents. The total colon tissues were homogenized with cold phosphate buffer saline (pH 7.4) of twice the weight of colon tissue and stored below −70° C. Total volume was three times the total colon tissue weights. All samples were processed for analysis by protein precipitation using acetonitrile and analyzed with developed LC-MS/MS method (LLOQ: 2.02 ng/mL in plasma and 1.01 ng/mL in colon tissue). Pharmacokinetic parameters were calculated using the non-compartmental analysis tool of Phoenix WinNonlin® software (version 6.3).

[3] = Hepatic microsomal stability, human; format: in vitro ADME; details: pooled liver microsomes, read-out: Mean intrinsic clearance
Procedure: • Microsomal stability assays were performed with incubations of test compounds at 0.1 μM (n=2, final DMSO concentration 0.25%), and carried out using pooled human, […], rat and Cynomolgus macaque hepatic microsomes from Xenotech (Lots 1210153, 0810143 and 1110042, respectively) at 0.25 mg protein/mL in the presence of cofactor, NADPH. The incubations were performed at 37° C. with 100 μL aliquots taken from the incubation, at 0, 2, 5, 10 and 20 minutes (and, in the case of Cynomolgus macaque hepatic microsomes, 40 minutes) and reactions terminated by addition of 100 μL of acetonitrile containing carbamazepine as analytical internal standard. […] Half-life values were calculated from the relationship T1/2 (min)=−0.693/λ • where λ was the slope of the Ln concentration vs time curve. • The in vitro intrinsic clearance, Clint (mL/min/kg), was calculated and scaled to hepatic extraction ratios using the following scaling parameters and formulae.
Formulae Clint(tissue clearance) mL/min/kg=[0.693/t½ (min)]×[1/microsomal protein concentration mg/mL]×[mg microsomes/g liver]×[g liver/kg body weight] […] Half-life values were calculated from the relationship T1/2 (min)=−0.693/λ • where λ was the slope of the Ln concentration vs time curve. • Standard compounds testosterone, midazolam and 4-methylumbelliferone are included in the assay design.

[4] = Cryopreserved hepatocyte stability, Cynomolgus macaque; format: in vitro ADME; details: pooled cryopreserved hepatocytes, read-out: Mean intrinsic clearance
Procedure: Formulae Clint(tissue clearance) mL/min/kg=[0.693/t½ (min)]×[1/microsomal protein concentration mg/mL]×[mg microsomes/g liver]×[g liver/kg body weight] […] The incubations were performed at 37° C. with 100 μL, samples taken from the incubation, at 0, 10, 20, 45 and 90 minutes, and reactions terminated by addition of 100 μL of acetonitrile containing carbamazepine as analytical internal standard. […] Half-life values were calculated from the relationship T1/2 (min)=−0.693/λ • where λ was the slope of the Ln concentration vs time curve. • Standard compounds testosterone, midazolam and 4-methylumbelliferone are included in the assay design.
Clint(Tissue Clearance) mL/min/kg=[0.693/t½(min)]×[1/hepatocyte concentration (million cells/mL)]×[million cells/g liver]×[g liver/kg body weight] Clint(Hepatic clearance) mL/min/kg=hepatic blood flow×Clint/(hepatic blood flow+Clint) Hepatic extraction ratio(Eh)=Clint(Hepatic clearance) mL/min/kg/hepatic blood flow (mL/min/kg)

[5] = system: 71 receptors and 26 enzymes; assay: Cerep Diversity Profile; format: binding; details: 300 nM; any of 71 receptors and 26 enzymes
[6] = Chemical stability in solid form at 40° C. and 75% relative humidity; format: physicochemical
Procedure: The results of the study are reported in the table below (where chemical purity was assessed using HPLC).

[7] = C57BL/6, colon, read-out: Mean concentration, Colon
[8] = C57BL/6, plasma, read-out: Mean concentration, Plasma
[9] = C57BL/6, po, Mouse, Total colon

SMILES: C#Cc1cc(Nc2nccc(Oc3ccc(NC(=O)Nc4cc(C(C)(C)C)nn4-c4ccc(C)cc4)c4ccccc34)n2)cc(C(=O)NCCOCCOCCOC)c1 [Example 2, 3-((4-((4-(3-(3-(tert-Butyl)-1-(p-tolyl)-1H-pyrazol-5-yl)ureido)naphthalen-1-yl)oxy)pyrimidin-2-yl)amino)-5-ethynyl-N-(2-(2-(2-methoxyethoxy)ethoxy)ethyl)-benzamide]
- % Inhibition of colon weight:length ([1]; 0.04 mg/kg BID oral): 25%#
- % inhibition of IL-8 release ([1]; 0.04 mg/kg BID oral): 34%#
- % inhibition of overall histopathology score ([1]; 0.04 mg/kg BID oral): 2%
- % Inhibition of colon weight:length ([1]; 0.2 mg/kg BID oral): 23%
- % inhibition of IL-8 release ([1]; 0.2 mg/kg BID oral): 39%
- % inhibition of overall histopathology score ([1]; 0.2 mg/kg BID oral): 5%
- % Inhibition of colon weight:length ([1]; 1 mg/kg BID oral): 43%#
- % inhibition of IL-8 release ([1]; 1 mg/kg BID oral): 36%#
- % inhibition of overall histopathology score ([1]; 1 mg/kg BID oral): 33%
- % Inhibition of colon weight:length ([1]; 5 mg/kg BID oral): 61%*
- % inhibition of IL-8 release ([1]; 5 mg/kg BID oral): 90%#
- % inhibition of overall histopathology score ([1]; 5 mg/kg BID oral): 46%
- concentration at 1 h [2, 7]: 884 ng/g
- concentration at 2 h [2, 7]: 2810 ng/g
- concentration at 4 h [2, 7]: 4240 ng/g
- concentration at 6 h [2, 7]: 1400 ng/g
- concentration at 8 h [2, 7]: 13700 ng/g
- concentration at 12 h [2, 7]: 7490 ng/g
- concentration at 24 h [2, 7]: 31.6 ng/g
- concentration at 1 h [2, 8]: 11.7 ng/mL
- concentration at 2 h [2, 8]: 8.5 ng/mL
- concentration at 4 h [2, 8]: 5.1 ng/mL
- concentration at 6 h [2, 8]: 4.55 ng/mL
- concentration at 8 h [2, 8]: 5.1 ng/mL
- concentration at 12 h [2, 8]: 0 ng/mL
- concentration at 24 h [2, 8]: 0 ng/mL
- AUC(0-t) ([2]; C57BL/6, po, Mouse, Plasma): 0.049 µg·h/mL
- Cmax ([2]; C57BL/6, po, Mouse, Plasma): 12 ng/mL
- Tmax ([2]; C57BL/6, po, Mouse, Plasma): 1 h
- AUC(0-inf) [2, 9]: 118 µg·h/mL
- AUC(0-t) [2, 9]: 117 µg·h/mL
- Cmax [2, 9]: 13700 ng/mL
- Tmax [2, 9]: 8 h
- microsomal CLint at 0.1 μM [3]: > 554 µL/min/mg
- hepatocyte CLint at 0.1 μM [4]: 43 µL/min/1e6 cells
- inhibition of the control specific binding in the receptor binding assays or enzyme assays [5]: less than 25%
- chemical purity (HPLC), solid form ([6]; 0 months): 98.52%
- chemical purity (HPLC), solid form ([6]; 1 month, 40° C./75% RH): 96.88%
- chemical purity (HPLC), solid form ([6]; 3 months, 40° C./75% RH): 94.32%
